According to article PMC11679574, “Intestinal Cells-on-Chip for Permeability Studies” (Micromachines, 2024):
Like-named read-outs stand apart in the source and are kept apart here.

Experiments:
[1] = tested on: glucuronosyltransferases (UGTs); assay: Phase II metabolism of 7-hydroxycoumarin in enteroid monolayers, static Transwell; format: in vitro ADME, human; settings: enteroids, 12 µM
Protocol: (§1) For specific inhibition, 5 µM elacridar and 5 µM ketoconazole (both Sigma-Aldrich, Zwijndrecht, The Netherlands) were used. The drug cocktail was added to the apical medium reservoirs of chip experiments (flow) and the apical insert of static Transwell inserts. Inhibitors were added to both apical dose solution and basolateral transport buffer. During experiments, samples were collected at different timepoints from both apical and basolateral medium reservoirs, mixed with equal volume of ultrapure MeOH and stored at −20 °C until analysis by LC-MS/MS.
(§2) For quantification, a standard of parental compounds and metabolites was prepared in the same medium as samples. Metabolites included were 1’-hydroxymidazolam (Sigma-Aldrich) and 7-hydroxycoumarin glucuronide (LGC Standards, OLY, UK). Both standard and samples were centrifuged for 10 min at 1500× g to precipitate protein, and subsequently, 1 µL was injected. […] A limit of quantification (LOQ) was determined for each compound based on the standard curve and a limit of detection (LOD) was determined based on a noise signal. For each experiment, corresponding dose and blanks were included in measurements. Recovery was calculated as the percentage of original dose added to the system.
(§3) All static control experiments were performed in cell monolayers cultured on transparent Transwell inserts (Corning, Life Sciences BV, Amsterdam, The Netherlands). […]

[2] = tested on: glucuronosyltransferases (UGTs); assay: Phase II metabolism of 7-hydroxycoumarin in enteroid monolayers, chip system; format: in vitro ADME, human; settings: enteroids, 12 µM
Protocol: To add the culture disc with cells into the system, it was transferred to a biosafety cabinet, the chips were opened from the top and the discs were added to the chip, after which they were closed using a twisting cap mechanism. Sufficient medium was added to the chip to ensure no air bubbles were trapped during this procedure. Flow speed was adjusted to 17 µL/min and the system was placed back into a cell culture incubator (37 °C, 5% CO2). After a short period of equilibration, transport medium (with/without compound of interest) was added to apical and basolateral reservoirs, with the basolateral medium containing 4% BSA. The medium volumes in the reservoirs depended on the duration of the experiment and the sample volumes required but were between 5 and 6.5 mL. To completely replace the medium inside the tubing and chip with fresh transport medium, the system was run without medium recirculation for 30 min prior to the start of measurements. Details on the permeability measurements are described below. […]
(§4) For quantification, a standard of parental compounds and metabolites was prepared in the same medium as samples. […] A limit of quantification (LOQ) was determined for each compound based on the standard curve and a limit of detection (LOD) was determined based on a noise signal. […] Recovery was calculated as the percentage of original dose added to the system.

[3] = no reference given; cited from earlier work
[4] = Permeability in cell-on-chip system under laminar flow, enteroid monolayers; settings: human
Protocol: (§5) To add the culture disc with cells into the system, it was transferred to a biosafety cabinet, the chips were opened from the top and the discs were added to the chip, after which they were closed using a twisting cap mechanism. Sufficient medium was added to the chip to ensure no air bubbles were trapped during this procedure. Flow speed was adjusted to 17 µL/min and the system was placed back into a cell culture incubator (37 °C, 5% CO2). After a short period of equilibration, transport medium (with/without compound of interest) was added to apical and basolateral reservoirs, with the basolateral medium containing 4% BSA. The medium volumes in the reservoirs depended on the duration of the experiment and the sample volumes required but were between 5 and 6.5 mL. To completely replace the medium inside the tubing and chip with fresh transport medium, the system was run without medium recirculation for 30 min prior to the start of measurements. Details on the permeability measurements are described below.
(§6) Leakage to the basolateral medium was determined using the BioTek Synergy H1 microplate reader (BioSPX, Abcoude, The Netherlands). […] Apparent permeability values (Papp) were calculated according to Equation (1):(1) Papp=dQ/dt×(1/A×C0) in which dQ/dt is the amount of drug transported over the barrier (ng/sec), A is the exposed area of the cell monolayer (cm^2) and C0 is the initial dose concentration of the compound (ng/mL). All measurements were performed under flow (17 µL/min), and the chip system was inside a cell culture incubator (37 °C, 5%CO2) during the entire experiment, as described in Section 2.6.
(§7) Apical and basolateral medium reservoirs were sampled at t = 0, 1, 2 and 4 h. All measurements were performed under flow (17 µL/min), and the chip system was inside a cell culture incubator (37 °C, 5% CO2) during the entire experiment, as described in Section 2.6.
as §1, §4

in vitro = settings: human
Protocol: as §6, §7, §1, §2
(§8) All static control experiments were performed in cell monolayers cultured on transparent Transwell inserts (Corning, Life Sciences BV, Amsterdam, The Netherlands). Procedures for seeding and culturing were exactly the same as previously reported. […] The only difference was in the volume of apical (100 µL) and basolateral (600 µL) compartment, which was accounted for in Papp calculations. All measurements were performed inside a cell culture incubator (37 °C, 5% CO2).

CYP3A4 = CYP3A4 (Homo sapiens, UniProt P08684); assay: Phase I metabolism of midazolam in enteroid monolayers, static Transwell; settings: enteroids, static Transwell cultures
CYP3A4, sequence (P08684 whole entry): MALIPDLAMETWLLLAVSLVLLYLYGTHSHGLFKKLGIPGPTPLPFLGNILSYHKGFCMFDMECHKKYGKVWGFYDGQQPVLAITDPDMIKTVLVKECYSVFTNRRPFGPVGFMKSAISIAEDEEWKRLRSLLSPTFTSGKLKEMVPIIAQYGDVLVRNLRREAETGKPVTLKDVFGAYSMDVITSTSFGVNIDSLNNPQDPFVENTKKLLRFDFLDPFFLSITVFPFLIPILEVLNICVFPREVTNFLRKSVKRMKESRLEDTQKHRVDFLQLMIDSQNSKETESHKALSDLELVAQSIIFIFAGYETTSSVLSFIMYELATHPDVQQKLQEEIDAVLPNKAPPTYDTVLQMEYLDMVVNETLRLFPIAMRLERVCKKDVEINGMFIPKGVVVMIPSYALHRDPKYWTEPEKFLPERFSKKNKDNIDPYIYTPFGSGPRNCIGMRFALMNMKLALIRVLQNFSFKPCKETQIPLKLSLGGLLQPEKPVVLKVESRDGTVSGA
Protocol: as §1, §2, §3

[5] = Compound recovery, cell-on-chip system; format: in vitro ADME; settings: human, read-out: Recovery, percentage of original dose
enteroid monolayers [6] = assay: Permeability in cell-on-chip system under laminar flow, enteroid monolayers
Protocol: as §5, §6, §7, §1, §4

enteroid monolayers [7] = assay: in vitro
Protocol: as §6, §7, §1, §2, §8

Caco-2 monolayers = assay: Permeability in static Transwell inserts, Caco-2 monolayers; format: in vitro ADME, human; settings: static culture, intact Caco-2 monolayer
Protocol: Leakage to the basolateral medium was determined using the BioTek Synergy H1 microplate reader (BioSPX, Abcoude, The Netherlands). FD4 was measured with an excitation/emission wavelength of 485 nm and 528 nm, and CB was measured at 365 nm and 412 nm, respectively. Apparent permeability values (Papp) were calculated according to Equation (1):(1) Papp=dQ/dt×(1/A×C0) in which dQ/dt is the amount of drug transported over the barrier (ng/sec), A is the exposed area of the cell monolayer (cm^2) and C0 is the initial dose concentration of the compound (ng/mL).
All static control experiments were performed in cell monolayers cultured on transparent Transwell inserts (Corning, Life Sciences BV, Amsterdam, The Netherlands). […] The only difference was in the volume of apical (100 µL) and basolateral (600 µL) compartment, which was accounted for in Papp calculations. All measurements were performed inside a cell culture incubator (37 °C, 5% CO2).

Molecule: O=c1ccc2ccc(O)cc2o1 [7OH-coumarin, 7-hydroxycoumarin]
- 7-hydroxycoumarin glucuronide formation [1]: confirm UGT activity
- 7-hydroxycoumarin glucuronide formation [2]: confirm UGT activity

Molecule: Cc1cc(=O)n(-c2ccccc2)n1C [Antipyrine, antipyrine]
- fraction absorbed (Fa) [3]: 100%

Molecule: CC(C)NCC(O)COc1ccc(CC(N)=O)cc1 (stereo not drawn) [Atenolol, atenolol]
- fraction absorbed (Fa) [3]: 50%

Molecule: CN(C)C(=N)N=C(N)N [Metformin, metformin]
- Papp A→B [4]: 4.6 ×10⁻⁶ cm/s
- Papp A→B (in vitro): 1.44 ×10⁻⁶ cm/s

Molecule: Cc1ncc2n1-c1ccc(Cl)cc1C(c1ccccc1F)=NC2 [Midazolam, midazolam]
- OH-midazolam formation (CYP3A4; in the presence of ketoconazole 5 µM): absent
- OH-midazolam formation (CYP3A4; midazolam 10 µM): increase in OH-midazolam over time
- recovery at 10 µM ([5]; chips containing translucent membranes): 41%
- recovery at 10 µM ([5]; chips with transparent membranes): 11%

Molecule: CC(C)c1nc(N(C)S(C)(=O)=O)nc(-c2ccc(F)cc2)c1/C=C/[C@@H](O)C[C@@H](O)CC(=O)O [Rosuvastatin, rosuvastatin]
- Papp A→B [4]: 1.11 ×10⁻⁶ cm/s
- Papp (in words) (enteroid monolayers [6]; enteroids, chip experiments, drug cocktail, 10 µM): low
- Papp A→B (in vitro): 0.7 ×10⁻⁶ cm/s
- Papp (in words) (enteroid monolayers [7]): low

Molecule: Cascade Blue [CB]
- Overall permeation compared to FD4 (enteroid monolayers [6]; chip system, overall over cell types and membranes): approximately 2 fold
- Papp (enteroid monolayers [7]; static culture, intact enteroid monolayer): 0.08 ·10^−6 cm/s
- Papp (Caco-2 monolayers): 0.5 ·10^−6 cm/s

Molecule: Dextran-FITC 4 kDa [FD4]
- Papp A to B, Static (enteroid monolayers [7]): 1e-08 cm/s
